Consider 27 compounds from patent US20240228506A1, “RIPK1 INHIBITORS AND METHODS OF USE” (Merck Sharp & Dohme LLC, priority 2021, published 2024).

This assay concerns the target T1, GST-RIPK1 (recombinant GST-RIPK1 kinase domain (residues 1-327)) (Homo sapiens, UniProt Q13546).
T1 construct: recombinant GST-RIPK1 kinase domain (residues 1-327) enzyme; made in house; host or cells: baculovirus-transfected Sf21 insect cells
T1 sequence (Q13546 1-327): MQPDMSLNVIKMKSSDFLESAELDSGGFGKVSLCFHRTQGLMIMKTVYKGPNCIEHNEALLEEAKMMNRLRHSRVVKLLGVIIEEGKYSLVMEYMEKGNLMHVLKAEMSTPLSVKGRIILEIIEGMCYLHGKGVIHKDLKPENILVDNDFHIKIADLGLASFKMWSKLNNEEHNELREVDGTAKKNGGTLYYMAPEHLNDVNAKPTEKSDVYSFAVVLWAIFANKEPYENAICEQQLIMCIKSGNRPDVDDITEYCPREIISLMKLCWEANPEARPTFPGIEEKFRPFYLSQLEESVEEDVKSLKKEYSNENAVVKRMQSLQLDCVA
Put plainly: RIPK1-ADP-Glo enzymatic assay. It counts as biochemical. Conditions: 25 nM GST-RIPK1, 300 μM ATP, 3 μM dephosphorylated-MBP; 30 minutes pre-incubation, 150 minutes reaction; ten-point titration. An outline of the steps: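 Ten-point 1:3 titrations from 100000 nM, 1% DMSO, were preincubated 30 min with 25 nM GST-RIPK1 (1-327) before starting with 300 μM ATP plus 3 μM dephosphorylated MBP; 150 min reaction. ADP-Glo luminescence measured ATP-to-ADP conversion; EC50 by four-parameter sigmoidal regression.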

With `CCC(C)(C(=O)N1C[C@@H]2C[C@H]1c1cncc(C#N)c1O2)C(F)F` (single isomer, unassigned) [Compound 1-85, (2S,5S)-4-(2-(R or S)-(difluoromethyl)-2-methylbutanoyl)-2,3,4,5-tetrahydro-2,5-methanopyrido[3,4-f][1,4]oxazepine-9-carbonitrile], the IC50 (usually the concentration at which inhibition is half-maximal) is 19 nM. The result for `CC(C)(C(=O)N1C[C@@H]2C[C@H]1c1cncc(F)c1O2)C(F)F` [Compound 2-1, 3,3-Difluoro-1-((2S,5S)-9-fluoro-2,3-dihydro-2,5-methanopyrido[3,4-f][1,4]oxazepin-4(5H)-yl)-2,2-dimethylpropan-1-one] reads 184 nM; that for `CC(C)C(C)(C)C(=O)N1C[C@@H]2C[C@H]1c1cncc(C#N)c1O2` [Compound 1-34, (2S,5S)-4-(2,2,3-trimethylbutanoyl)-2,3,4,5-tetrahydro-2,5-methanopyrido[3,4-f][1,4]oxazepine-9-carbonitrile], 24 nM; that for `N#Cc1cncc2c1O[C@H]1C[C@@H]2N(C(=O)C23CCC(C(F)F)(CC2)C3)C1` [Compound 1-19, (2S,5S)-4-[4-(difluoromethyl)bicyclo[2.2.1]heptane-1-carbonyl]-2,3,4,5-tetrahydro-2,5-metanopyrido[3,4-f][1,4]oxazepine-9-carbonitrile], 24 nM.

Turning to `CC(F)(F)C(C)(C)C(=O)N1C[C@@H]2C[C@H]1c1cncnc1O2` [Compound 3-2, 1-((5S,8S)-7,8-dihydro-5,8-methanopyrimido[5,4-f][1,4]oxazepin-6(5H)-yl)-3,3-difluoro-2,2-dimethylbutan-1-one], the IC50 was found to be 1210 nM. For the compound `N#Cc1cncc2c1O[C@H]1C[C@@H]2N(C(=O)C23CCC(C(F)(F)F)(CC2)C3)C1` [Compound 1-2, (2S,5S)-4-[4-(trifluoromethyl)bicyclo[2.2.1]heptane-1-carbonyl]-2,3,4,5-tetrahydro-2,5-methanopyrido[3,4-f][1,4]oxazepine-9-carbonitrile], the IC50 turned out to be 7 nM.

Take `O=C(N1C[C@@H]2C[C@H]1c1cncc(F)c1O2)C12CCC(C1)C2` [Compound 2-30, bicyclo[2.1.1]hexan-1-yl((2S,5S)-9-fluoro-2,3-dihydro-2,5-methanopyrido[3,4-f][1,4]oxazepin-4(5H)-yl)methanone]: the IC50 turned out to be 156 nM. The result for `CC1(C(=O)N2C[C@@H]3C[C@H]2c2cncc(C#N)c2O3)CCCO1` (mixture of isomers) [Compound 1-64, (2S,5S)-4-(2-(S and R)-methyltetrahydrofuran-2-carbonyl)-2,3,4,5-tetrahydro-2,5-methanopyrido[3,4-f][1,4]oxazepine-9-carbonitrile] reads 729 nM. With `Cc1ncc(C#Cc2cncc3c2O[C@H]2C[C@@H]3N(C(=O)C(C)(C)C(F)F)C2)c(C)n1` [Compound 2-95, 1-((2S,5S)-9-((2,4-dimethylpyrimidin-5-yl)ethynyl)-2,3-dihydro-2,5-methanopyrido[3,4-f][1,4]oxazepin-4(5H)-yl)-3,3-difluoro-2,2-dimethylpropan-1-one] the figure was 36 nM; with `CC1(C(=O)N2C[C@@H]3C[C@H]2c2cncc(Cl)c2O3)CCCC1` [Compound 2-25, ((2S,5S)-9-chloro-2,3-dihydro-2,5-methanopyrido[3,4-f][1,4]oxazepin-4(5H)-yl)(1-methylcyclopentyl) methanone], 79 nM.

Consider `N#Cc1cncc2c1S[C@H]1C[C@@H]2N(C(=O)C2(C#N)CCC2)C1` [Compound 4-6, (2S,5S)-4-(1-cyanocyclobutane-1-carbonyl)-2,3,4,5-tetrahydro-2,5-methanopyrido[3,4-f][1,4]thiazepine-9-carbonitrile], for which the IC50 was found to be 49 nM. Regarding `O=C(N1C[C@@H]2C[C@H]1c1cncc(C#Cc3cscn3)c1O2)C12CCC(C(F)(F)F)(CC1)C2` [Compound 2-54, ((2S,5S)-9-(thiazol-4-ylethynyl)-2,3-dihydro-2,5-methanopyrido[3,4-f][1,4]oxazepin-4(5H)-yl)(4-(trifluoromethyl)bicyclo [2.2.1]heptan-1-yl)methanone], the IC50 was 18 nM.

Turning to `CC(C)(C(=O)N1C[C@@H]2C[C@H]1c1cc(F)cnc1O2)C(F)F` [Compound 3-1, 3,3-Difluoro-1-((2S,5S)-7-fluoro-2,3-dihydro-2,5-methanopyrido[3,2-f][1,4]oxazepin-4(5H)-yl)-2,2-dimethylpropan-1-one], the IC50 amounted to 317 nM. For `CC(C)(C(=O)N1C[C@@H]2C[C@H]1c1cncc(C#Cc3cncc(C(F)(F)F)c3)c1O2)C(F)F` [Compound 2-89, 3,3-difluoro-2,2-dimethyl-1-((2S,5S)-9-((5-(trifluoromethyl)pyridin-3-yl)ethynyl)-2,3-dihydro-2,5-methanopyrido[3,4-f][1,4]oxazepin-4(5H)-yl)propan-1-one], the IC50 was 34 nM.

For `O=C(N1C[C@@H]2C[C@H]1c1cncc(F)c1O2)C12CCC(CC1)C2` [Compound 2-21, bicyclo[2.2.1]heptan-1-yl((2S,5S)-9-fluoro-2,3-dihydro-2,5-methanopyrido[3,4-f][1,4]oxazepin-4(5H)-yl)methanone], the IC50 turned out to be 37 nM. The result for `O=C(N1C[C@@H]2C[C@H]1c1cncc(C#Cc3cnccn3)c1O2)C12CCC(C(F)(F)F)(CC1)C2` [Compound 2-61, ((2S,5S)-9-(pyrazin-2-ylethynyl)-2,3-dihydro-2,5-methanopyrido[3,4-f][1,4]oxazepin-4(5H)-yl)(4-(trifluoromethyl)bicyclo [2.2.1]heptan-1-yl)methanone] reads 22 nM; that for `N#Cc1cncc2c1O[C@H]1C[C@@H]2N(C(=O)C23CCCCC2C3)C1` (stereo partly drawn) [Compound 1-78, (2S,5S)-4-(bicyclo[4.1.0]heptane-1-carbonyl)-2,3,4,5-tetrahydro-2,5-methanopyrido[3,4-f][1,4]oxazepine-9-carbonitrile], 77 nM. The result for `N#Cc1cncc2c1O[C@H]1C[C@@H]2N(C(=O)C23CCC(F)(CC2)CC3)C1` [Compound 1-63, (2S,5S)-4-(4-fluorobicyclo[2.2.2]octane-1-carbonyl)-2,3,4,5-tetrahydro-2,5-methanopyrido[3,4-f][1,4]oxazepine-9-carbonitrile] reads 58 nM; that for `CC(C)(C(=O)N1C[C@@H]2C[C@H]1c1cncc(C#CC34CC(C(F)(F)F)(C3)C4)c1O2)C(F)F` [Compound 2-114, 3,3-difluoro-2,2-dimethyl-1-((2S,5S)-9-((3-(trifluoromethyl)bicyclo [1.1.1]pentan-1-yl)ethynyl)-2,3-dihydro-2,5-methanopyrido[3,4-f][1,4]oxazepin-4(5H)-yl)propan-1-one], 1530 nM; that for `CC(C)(C(=O)N1C[C@@H]2C[C@H]1c1cncc(Cl)c1O2)C1CC1` [Compound 2-6], 24 nM. Regarding `CC(F)(F)C1(C(=O)N2C[C@@H]3C[C@H]2c2cncc(C#N)c2O3)CCC1` [Compound 1-22, (2S,5S)-4-[1-(1,1-difluoroethyl)cyclobutane-1-carbonyl]-2,3,4,5-tetrahydro-2,5-methanopyrido[3,4-f][1,4]oxazepine-9-carbonitrile], the IC50 came out at 55 nM.

Take `N#Cc1cncc2c1O[C@H]1C[C@@H]2N(C(=O)C23CC(Cl)(C2)C3)C1` [Compound 1-93, (2S,5S)-4-(3-chlorobicyclo[1.1.1]pentane-1-carbonyl)-2,3,4,5-tetrahydro-2,5-methanopyrido[3,4-f][1,4]oxazepine-9-carbonitrile]: the IC50 was 88 nM. With `CC(C)(C(=O)N1C[C@@H]2C[C@H]1c1cncc(C#Cc3cnc(C#N)nc3)c1O2)C(F)F` [Compound 2-78, 5-(((2S,5S)-4-(3,3-difluoro-2,2-dimethylpropanoyl)-2,3,4,5-tetrahydro-2,5-methanopyrido[3,4-f][1,4]oxazepin-9-yl)ethynyl)pyrimidine-2-carbonitrile] the figure was 19 nM.

On to `Cc1ncc(C#Cc2cncc3c2O[C@H]2C[C@@H]3N(C(=O)C(C)(C)C(F)F)C2)cn1` [Compound 2-76, 3,3-difluoro-2,2-dimethyl-1-((2S,5S)-9-((2-methylpyrimidin-5-yl)ethynyl)-2,3-dihydro-2,5-methanopyrido[3,4-f][1,4]oxazepin-4(5H)-yl)propan-1-one], for which the IC50 was 33 nM.

In the case of `N#CC12CCC(C(=O)N3C[C@@H]4C[C@H]3c3cncc(Cl)c3O4)(C1)C2` [Compound 2-26, 4-((2S,5S)-9-chloro-2,3,4,5-tetrahydro-2,5-methanopyrido[3,4-f][1,4]oxazepine-4-carbonyl)bicyclo[2.1.1] hexane-1-carbonitrile], the IC50 is 87 nM.

In the case of `N#Cc1cncc2c1O[C@H]1C[C@@H]2N(C(=O)C23CCC(CO2)C3)C1` [Compound 1-108, (2S,5S)-4-(2-oxabicyclo[2.2.1]heptane-1-carbonyl)-2,3,4,5-tetrahydro-2,5-methanopyrido[3,4-f][1,4]oxazepine-9-carbonitrile], the IC50 is 269 nM.

As to `COc1ccnc(N2CCC(F)(C(=O)N3C[C@@H]4C[C@H]3c3cncc(C#N)c3O4)CC2)n1` [Compound 1-56, (2S,5S)-4-(4-fluoro-1-(4-methoxypyrimidin-2-yl)piperidine-4-carbonyl)-2,3,4,5-tetrahydro-2,5-methanopyrido[3,4-f][1,4]oxazepine-9-carbonitrile], the IC50 was 41 nM.
